The values below are quoted from earlier work in patent publication US20180243207A1, “DUAL-RELEASE FLEXIBLE F[…] IN […] HOSPICE CARES OF ELDERLY PATIENTS” (priority 2017, published 2018).

For one data set, the target named is T1, α3-GABAA receptors (Homo sapiens, UniProt P18507+P34903).
T1 sequence (P34903 29-492): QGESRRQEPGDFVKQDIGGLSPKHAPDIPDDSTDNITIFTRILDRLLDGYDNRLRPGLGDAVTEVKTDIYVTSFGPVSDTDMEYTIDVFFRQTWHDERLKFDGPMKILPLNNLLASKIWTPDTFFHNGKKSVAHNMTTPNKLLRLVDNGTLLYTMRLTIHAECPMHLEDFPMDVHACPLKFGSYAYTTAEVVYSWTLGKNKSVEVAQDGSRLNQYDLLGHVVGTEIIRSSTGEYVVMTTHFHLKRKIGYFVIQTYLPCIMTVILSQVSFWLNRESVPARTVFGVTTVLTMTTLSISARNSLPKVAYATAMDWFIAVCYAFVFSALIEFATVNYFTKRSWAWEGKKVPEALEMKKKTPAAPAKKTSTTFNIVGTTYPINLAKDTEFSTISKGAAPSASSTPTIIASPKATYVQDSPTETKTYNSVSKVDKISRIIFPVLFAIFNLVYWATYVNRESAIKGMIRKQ
T1 sequence (P18507 40-467 limits assumed): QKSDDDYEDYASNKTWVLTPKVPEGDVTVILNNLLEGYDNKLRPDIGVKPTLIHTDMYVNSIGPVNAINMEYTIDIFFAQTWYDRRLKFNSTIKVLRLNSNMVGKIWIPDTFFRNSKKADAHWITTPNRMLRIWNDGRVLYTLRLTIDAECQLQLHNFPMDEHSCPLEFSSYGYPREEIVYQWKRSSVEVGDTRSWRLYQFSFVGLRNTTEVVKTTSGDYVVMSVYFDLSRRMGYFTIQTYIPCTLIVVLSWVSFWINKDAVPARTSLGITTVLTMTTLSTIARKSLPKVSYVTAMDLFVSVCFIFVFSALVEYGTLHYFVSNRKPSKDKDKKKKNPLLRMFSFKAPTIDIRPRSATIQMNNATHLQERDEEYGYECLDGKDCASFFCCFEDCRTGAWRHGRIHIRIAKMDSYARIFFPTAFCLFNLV
T1 sequence (P28472 26-473 partner): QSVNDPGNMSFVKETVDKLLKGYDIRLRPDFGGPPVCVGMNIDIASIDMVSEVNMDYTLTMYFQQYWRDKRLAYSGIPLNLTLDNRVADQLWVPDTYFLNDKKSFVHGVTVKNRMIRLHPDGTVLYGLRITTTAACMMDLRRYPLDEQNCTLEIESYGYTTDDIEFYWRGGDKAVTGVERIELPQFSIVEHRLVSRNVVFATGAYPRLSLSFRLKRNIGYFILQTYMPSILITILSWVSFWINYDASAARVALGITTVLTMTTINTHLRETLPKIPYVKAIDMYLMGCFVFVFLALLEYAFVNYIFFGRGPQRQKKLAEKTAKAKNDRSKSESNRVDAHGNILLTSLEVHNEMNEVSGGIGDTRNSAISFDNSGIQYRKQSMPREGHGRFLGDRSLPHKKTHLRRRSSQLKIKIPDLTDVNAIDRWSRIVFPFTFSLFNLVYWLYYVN

Another data set concerns the target T2, α2-GABAA receptors (Homo sapiens, UniProt P18507+P47869).
T2 sequence (P47869 29-451): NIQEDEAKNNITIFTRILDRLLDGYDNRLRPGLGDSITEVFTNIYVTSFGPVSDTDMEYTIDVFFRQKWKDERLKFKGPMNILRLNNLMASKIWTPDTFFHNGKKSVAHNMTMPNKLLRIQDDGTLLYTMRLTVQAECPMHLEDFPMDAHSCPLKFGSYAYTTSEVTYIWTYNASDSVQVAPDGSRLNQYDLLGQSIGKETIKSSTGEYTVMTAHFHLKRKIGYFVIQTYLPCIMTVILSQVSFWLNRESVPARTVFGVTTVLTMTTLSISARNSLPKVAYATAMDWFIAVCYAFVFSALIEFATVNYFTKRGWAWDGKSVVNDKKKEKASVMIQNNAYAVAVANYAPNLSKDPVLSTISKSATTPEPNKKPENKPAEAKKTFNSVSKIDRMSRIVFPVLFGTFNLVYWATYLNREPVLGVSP
T2 sequence (P18507 40-467 limits assumed): T1 sequence (P18507 40-467 limits assumed)
T2 sequence (P28472 26-473 partner): T1 sequence (P28472 26-473 partner)

For `O=C1Nc2ccc(Cl)cc2C(c2ccccc2Cl)=NC1O` (centres unmarked) [Lorazepam], at α3-GABAA receptors, the “affinity to α3-GABAA receptors” value was “high”. Moreover, the “affinity to α2-GABAA receptors” value on α2-GABAA receptors is on record as “intermediate”.
